This assay concerns acyl-CoA: cholesterol acyltransferase (ACAT). The experiment in a line: ACAT inhibiting effect in vitro (rat liver microsome, method of Ross et al.). The format is biochemical. The note with it: rat liver microsome (Sprague-Dawley) enzyme fraction, 100 μM [14C]oleoyl-CoA, 37° C., 4 minutes; stated in words only. How it is done:
ACAT inhibiting activities were determined according to the improved test method in vitro reported by Ross et al. [A. C. Ross etal., J. Biol. Chem., 259, 815-819(1984)].
According to the procedure described in A. C. Ross et al., J. Biol. Chem., 257, 2453-2459(1982), rat liver microsome was prepared from a rat of Sprague-Dawley strain fasted overnight to make an enzyme fraction. To a 0.15M potassium phosphate buffer solution (pH 7.4) containing 100 μM of [14C]oleoyl-CoA, 2 mM of dithiothreitol and 80 μM of bovine serum albumin were added 60-100 μg of the microsome fraction, and a 5 μl solution of a test compound in dimethylsulfoxide (2.5% v/v) was added to the above phosphate buffer solution to make 200 μl. The mixture was warmed at 37° C. for 4 minutes and then the enzyme reaction was stopped by adding 1 ml of ethanol under stirring. To the reaction mixture were added 2 ml of hexane. After stirring, 1 ml of a hexane solution was taken out and the solvent was evaporated in a stream of nitrogen. Cholesteryl oleate resulted from the enzyme reaction was separated by thin layer chromatography through silica gel using a 85:15:1 mixture of hexane, diethyl ether and acetic acid as a developing solvent. An ACAT activity was determined by measuring radioactivity and a inhibiting rate (%) was calculated by comparing a control activity with that of the test compound at given concentrations.
Consider `CCc1cccc(SC)c1NC(=O)CC1c2ccccc2Oc2ccccc21` [Example 9, N-(2-Ethyl-6-methylthiophenyl)-2-(9H-xanthen-9-yl)acetamide], for which the ACAT inhibiting activity entry is listed as “excellent inhibiting activity”.
As for `CCc1cccc(OC(C)C)c1NC(=O)CC1c2ccccc2Oc2ccccc21` [Example 25, N-(2-Ethyl-6-isopropoxyphenyl)-2-(9H-xanthen-9-yl)acetamide], the ACAT inhibiting activity entry is “excellent inhibiting activity”.
Turning to `CC(C)c1cccc(C(C)C)c1NC(=O)CC1(C)c2ccccc2Oc2ccccc21` [Example 18-B, N-[2,6-bis(1-methylethyl)phenyl]-2-(9-methyl-9H-xanthen-9-yl)acetamide], the ACAT inhibiting activity entry is “excellent inhibiting activity”.
Regarding `CCc1cccc(CC)c1NC(=O)CC1c2ccccc2Oc2ccccc21` [Example 2, N-(2,6-Diethylphenyl)-2-(9H-xanthen-9-yl)acetamide], the ACAT inhibiting activity result was “excellent inhibiting activity”.
For `CCc1cccc(SC(C)C)c1NC(=O)CC1c2ccccc2Oc2ccccc21` [Example 10, N-(2-Ethyl-6-isopropylthiophenyl)-2-(9H-xanthen-9-yl)acetamide] the value was “excellent inhibiting activity”; for `CC(C)c1cccc(C(C)C)c1NC(=O)CC1c2ccccc2Oc2ccccc21` [Example 1, N-[2,6-Bis (1-methylethyl)phenyl]-2-(9H-xanthen-9-yl)acetamide], “excellent inhibiting activity”; for `CCc1cccc(CSC)c1NC(=O)CC1c2ccccc2Oc2ccccc21` [Example 3, N-(2-Ethyl-6-methylthiomethylphenyl)-2-(9H-xanthen-9-yl)acetamide], “excellent inhibiting activity”.
Under `CC(C)c1cccc(C(C)C)c1NC(=O)C(C)C1c2ccccc2Oc2ccccc21` (stereo not drawn) [Example 16, N-[2,6-Bis(1-methylethyl)phenyl]-2-(9H-xanthen-9-yl)propanamide] stands “excellent inhibiting activity”; under `CCc1cccc(Sc2ccccc2)c1NC(=O)CC1c2ccccc2Oc2ccccc21` [Example 11, N-(2- Ethyl-6-phenylthiophenyl)-2-(9H-xanthen-9-yl)acetamide], “excellent inhibiting activity”.

For the origin of these results see patent publication US5563169A, “Tricyclic heterocyclic compound” (Sankyo Company, Limited, priority 1991, dated 1996).
